ChEMBL document CHEMBL1151561, “Benzopyran sulfoxide derivatives as New potassium channel activator” (Bioorg Med Chem Lett, 1993)

Organism: Canis familiaris
Test: The compound was tested for its relaxation activity on smooth muscle of canine mesenteric artery
Format: functional
Details: Canis lupus familiaris

| Structure (SMILES) | EC50 |
| --- | --- |
| CC1(C)C=C(C2CCC[S+]2[O-])c2cc([N+](=O)[O-])ccc2O1 (stereo not given) | 1960 nM |
| CC1(C)C[C@](O)(C2CCC[S+]2[O-])c2cc([N+](=O)[O-])ccc2O1 (stereo not given in full) | 12200 nM |
| CC1(C)C=C(c2cccc[n+]2[O-])c2cc([N+](=O)[O-])ccc2O1 | 61.8 nM |
| CC1(C)Oc2ccc(C#N)cc2[C@@H](N2CCCC2=O)[C@@H]1O [CROMAKALIM] | 1960 nM |
| CC1(C)C=C(c2cccc[n+]2[O-])c2cc(C#N)ccc2O1 | 222 nM |
